Experimental data from US20250129069A1, “TRIAZOLO WRN INHIBITORS” (Nimbus Wadjet, Inc., priority 2023, published 2025).
pEC50, pIC50: −log10 of the molar value. Where two headings read alike, the source gives them in different places.

Assays:
[1] = tested on: p21 induction in HCT 116 cells; assay: p21 induction in cells (In-Cell Western, p21/GAPDH ratio); assay type: cell-based; details: 24 h compound incubation, read-out: p21_EC50
Experimental: The colon carcinoma cell line HCT 116 was obtained from ATCC and cultured in growth medium consisting of Mccoy's 5A Medium (Gibco 16600108) supplemented with 10% FBS (Transgene FS201-02) and 100 units/mL penicillin-streptomycin (Gibco 15140122) and maintained at 37° C. under 5% CO2. On the day of seeding, 2,000 cells in 30 μL of culture media were plated per well to Poly-D-Lysine 384 Well Black Clear Plates (Biocoat 356663) and incubated overnight at 37° C. under 5% CO2. The following day, compounds were serially diluted in DMSO for a total of 11 test concentrations. The typical starting concentration of compounds was 10 μM with 2-fold dilutions. Next, 150 nL of diluted compound was added in duplicate to the assay plate, using an Echo 655 (Labcyte). The plate was centrifuged at 500 RPM for 1 min and then incubated at 37° C. under 5% CO2 for 24 h. After 24 h, medium was removed, and cells were fixed by adding 40 μL of 4% paraformaldehyde solution to each well and incubated for 20 min at room temperature. The plate was then washed 4 times with 100 μL per well of wash buffer (PBS with 0.1% Tween-20) using a microplate washer. Next, 30 μL of ice-cold methanol was added to each well and the plate was incubated at −20° C. for 10 min. The plate was washed 4 times with 100 μL per well of wash buffer by a microplate washer, then 30 μL per well of blocking buffer ((Intercept PBS blocking buffer (LI-COR 927-70001) with 0.05% Tween-20)) was added and the plate was incubated at room temperature with shaking for 2 h. Next, to each test well, 20 μL of primary antibody solution (p21 Wafl/CIP (12D1) RabbitmAb (Cell Signaling Technologies 2947) diluted 1:1000 and GAPDH (D4C6R) Mouse mAb (Cell Signaling Technologies 97166) diluted 1:2000 in blocking buffer) was added and the plate was placed at 4° C., overnight. The following day, the plate was washed 5 times with 100 μL per well of wash buffer using a microplate washer for 5 min. 20 μL per well of secondary antibody (IRDye 680CW Goat anti-Mouse IgG (H+L) (LI-COR 926-68070) diluted 1:2000 in Blocking Buffer and IRDye 800CW Goat anti-Rabbit IgG (H+L) (LI-COR 926-32211) diluted 1:2000 in Blocking Buffer) was then added and the plate was stored for 2 h in the dark at room temperature with shaking. The plate was then washed 4 times with 100 μL per well of wash buffer again using a microplate washer. Finally, the p21 signal and the GAPDH signal were quantified using a LI-COR Odyssey CLx Imager machine reading at 800 nm and 700 nm, respectively. Each plate contained DMSO control (low control) and an internal reference WRN inhibitor (high control) respectively. For quantitation, the 800 nm/700 nm ratio was calculated for each well to give fold p21 induction and then percent activation for each compound well was calculated as follows (100×(ratio cpd well-ratio low control)/(ratio high control−ratio low control). EC50 values for each compound was generated after non-linear regression curve fitting using commercially available software.

[2] = biological target: human Werner helicase (WRN, amino acids 517-1235 with L1074F point mutation) (Homo sapiens (Human), UniProt Q14191, L1074F); assay: WRN (BV08) ADP-Glo assay; assay type: biochemical; details: human WRN (aa 517-1235, L1074F), read-out: ADP-Glo_hWRN_IC50
From the text: Bovine skin gelatin (BSG), dimethyl sulfoxide (DMSO), Pluronic F-127 and tris(2-carboxyethyl)phosphine hydrochloride solution (TCEP) were purchased from Sigma-Aldrich (St. Louis, MO) at the highest level of purity possible. Bicine buffer solution was purchased from Alfa Aesar (Tewksbury, MA) and compound NSC-617145 was purchased from Tocris (Minneapolis, MN). DNA duplex was synthesized at BGI (Shenzhen, China) and was composed of strand 1 with the sequence 5′-[…]-3′ (SEQ ID NO.: 1) and strand 2 with the sequence 5′-[…]-3′ (SEQ ID NO.: 2). DNA strands were annealed by heating to 95° C. for 5 minutes followed by slow cooling to room temperature. Compounds in 100% DMSO (0.1 μl) were spotted into a 384-well white polystyrene Optiplate-384 (Perkin Elmer; Waltham, MA) assay plate using a LabCyte Echo 550 (Agilent; Santa Clara, CA). DMSO (0.1 μl) was added to columns 12, rows A-H and column 24, rows I-P for the maximum signal control. Compound NSC-617145 (0.1 μl) was added to columns 12, rows I-P and 24, rows A-H for the minimum signal control (100% inhibition). Compounds/DMSO were preincubated for 15 minutes at 25° C. with 5 μl 2×WRN (BV08), prepared as described below, in assay buffer containing 20 mM Bicine (pH=7.5), 1 mM MgCl2, 10 mM KCl, 0.1% Pluronic F-127, 0.005% BSG, 1 mM TCEP. The reaction was initiated by the addition of 5 μl 2× substrate mixture in assay buffer and incubated for 60 minutes at 25° C. The final concentrations of the assay components were 0.15 nM WRN, 5 μM ATP, and 0.1 nM DNA duplex. The final DMSO concentration was 1% and the reference compound concentration (NSC-617145) used for the minimal signal control was 20 μM. The reaction was stopped by the addition of the ADP-Glo Kit components (Promega; Madison, WI) as directed and the relative luminescence units (RLU) were read on an Envision 2104 (Perkin Elmer; Waltham, MA).
% inhibition calculation:
% INH=(RLU MAX−RLU sample)/(RLU MAX−RLU MIN))×100
Where RLU=relative luminescence units, sample=signal in sample well, and MIN and MAX are the respective minimum and maximum signal controls. Four-parameter IC50 fit equation:
Y=Bottom+(Top−Bottom)/(1+(IC50/X)^Hill Slope)
Where top and bottom are normally allowed to float but may be fixed at 100 or 0 respectively in a 3-parameter fit. Y is the % inhibition and X is the compound concentration.
Molecular Biology and virus production. The DNA encoding human Werner helicase (Uniprot Q14191, amino acids 517-1235 with L1074F point mutation) was generated with codon-optimization for E. coli expression and subcloned into the pFastBac vector with a TEV cleavable 8×His tag (WRN—BV08). The baculovirus from the expression plasmid WRN—BV08 was generated from transfection and amplification following the manufacturer's instructions.
Sf9 cells grown in SF900II media were infected with 1:200 WRN—BV08 P2 virus and incubated for protein expression for 72 h at 27° C. The WRN protein was purified using the following protocol. The cell pellets were thawed and resuspended in buffer A (50 mM Tris, pH 7.5, 500 mM NaCl, 1 mM TCEP, 10% Glycerol) supplemented with 0.5% CHAPS, 1 mM PMSF, […] Leupeptin, 1 μg/ml Pepstatin, and the Pierce Universal Nuclease and cocktail tablet. Cleared lysates were loaded onto a Ni Sepharose™ excel column and washed with buffer A and bound protein was eluted with buffer A supplemented with 300 mM imidazole. The eluted protein was dialyzed against buffer A and digested by His-tagged TEV (1:5 ratio) overnight at 4° C. ZnCl2 was added into the sample at final 15 μM before loading onto a second Ni Sepharose™ excel column. Untagged WRN protein was eluted from the column with buffer A supplemented with 20 mM imidazole, dialyzed overnight into buffer B (50 mM Tris, pH 7.5, 1 mM TCEP, 10% Glycerol) supplemented with 150 mM NaCl and loaded onto a Heparin column. Proteins were eluted with a step gradient of buffer B supplemented with 150 mM, 200 mM, 300 mM and 500 mM NaCl. […]

Sequence of human Werner helicase (WRN, amino acids 517-1235 with L1074F point mutation) (Q14191 other isoform, or with tags, fused parts or gaps L1074F (already in the parent)): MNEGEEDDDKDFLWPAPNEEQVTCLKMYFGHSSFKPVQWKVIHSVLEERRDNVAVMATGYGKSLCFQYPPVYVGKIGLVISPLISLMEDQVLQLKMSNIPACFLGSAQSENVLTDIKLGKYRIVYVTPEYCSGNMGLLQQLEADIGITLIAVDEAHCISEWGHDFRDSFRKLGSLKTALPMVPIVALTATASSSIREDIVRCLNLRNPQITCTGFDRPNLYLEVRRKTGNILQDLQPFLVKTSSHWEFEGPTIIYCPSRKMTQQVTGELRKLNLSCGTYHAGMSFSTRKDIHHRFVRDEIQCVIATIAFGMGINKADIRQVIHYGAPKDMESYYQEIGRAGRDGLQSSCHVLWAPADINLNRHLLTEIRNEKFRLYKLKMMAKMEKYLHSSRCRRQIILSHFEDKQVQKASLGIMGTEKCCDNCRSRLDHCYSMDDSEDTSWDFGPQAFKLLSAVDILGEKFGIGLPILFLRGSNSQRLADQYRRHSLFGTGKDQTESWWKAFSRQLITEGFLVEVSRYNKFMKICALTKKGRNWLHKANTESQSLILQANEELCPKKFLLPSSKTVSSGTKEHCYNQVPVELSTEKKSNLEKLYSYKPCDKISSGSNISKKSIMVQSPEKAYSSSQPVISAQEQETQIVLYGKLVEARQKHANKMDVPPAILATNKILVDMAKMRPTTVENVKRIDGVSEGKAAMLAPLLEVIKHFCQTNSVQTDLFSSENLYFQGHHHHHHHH

| SMILES | pEC50 ([1]; Homo sapiens) | pIC50 [2] | pEC50 [1] |
| --- | --- | --- | --- |
| CCc1c(N2CCN(C(=O)c3ncnc(C)c3O)[C@H]3CC[C@@H]32)c(=O)c2nn(C3=CCO[C@H](C)C3)nc2n1CC(=O)NC12CC(C3CC3)(C1)C2 (single isomer, unassigned) [Compound I-180] | ≥ 6.30 | 7.30 to 8.30 |  |
| CCc1c(N2CCN(C(=O)c3ncnc(C)c3O)[C@H]3CC[C@@H]32)c(=O)c2nn(C3=CCO[C@H](C)C3)nc2n1CC(=O)NC12CC(C3CC3)(C1)C2 (single isomer, unassigned) [Compound I-181] |  | 7.30 to 8.30 | ≥ 6.30 |
| CCc1c(N2CCN(C(=O)c3ncnc(C)c3O)[C@H]3CC[C@@H]32)c(=O)c2nn([C@@H]3CC3(F)F)nc2n1CC(=O)Nc1ccc(C(F)(F)F)cc1Cl (single isomer, unassigned) [Compound I-215] | ≥ 6.30 | ≥ 8.30 |  |
| CCc1c(N2CCN(C(=O)c3ncnc(C)c3O)CC2)c(=O)c2nn(-c3ccnc(OC)c3)nc2n1CC(=O)Nc1ccc(C(F)(F)F)cc1Cl [Compound I-1, N-(2-chloro-4-(trifluoromethyl)phenyl)-2-(5-ethyl-6-(4-(5-hydroxy-6-methylpyrimidine-4-carbonyl)piperazin-1-yl)-2-(2-methoxypyridin-4-yl)-7-oxo-2,7-dihydro-4H-[1,2,3]triazolo[4,5-b]pyridin-4-yl)acetamide] |  | 7.30 to 8.30 | ≥ 6.30 |
| CCc1c(N2CCN(C(=O)c3ncnc(C)c3O)[C@H]3CC[C@@H]32)c(=O)c2nn(-c3ccnc(OC)c3)nc2n1CC(=O)NC1CC2(CCC2)C1 [Compound I-86, 2-{5-ethyl-6-[(1S,6S)-5-(5-hydroxy-6-methylpyrimidine-4-carbonyl)-2,5-diazabicyclo[4.2.0]octan-2-yl]-2-(2-methoxypyridin-4-yl)-7-oxo-2H,4H,7H-[1,2,3]triazolo[4,5-b]pyridin-4-yl}-N-{spiro[3.3]heptan-2-yl}acetamide] |  | 7.30 to 8.30 |  |

Next, values leading:

| pEC50 ([1]; Homo sapiens) | pIC50 [2] | pEC50 [1] | SMILES |
| --- | --- | --- | --- |
| 5.30 to 5.70 | 7.30 to 8.30 |  | CCc1c([C@]23CCN(C(=O)c4ncnc(C)c4O)C[C@H]2C3)c(=O)c2nn(-c3ccnc(OC)c3)nc2n1CC(=O)NC12CC(C(C)C)(C1)C2 (relative stereo) [Compound I-41, rel-2-{5-ethyl-6-[(1R,6S)-3-(5-hydroxy-6-methylpyrimidine-4-carbonyl)-3-azabicyclo[4.1.0]heptan-6-yl]-2-(2-methoxypyridin-4-yl)-7-oxo-2H,4H,7H-[1,2,3]triazolo[4,5-b]pyridin-4-yl}-N-[3-(propan-2-yl)bicyclo[1.1.1]pentan-1-yl]acetamide] |
| < 5.30 | < 6.30 |  | CCc1c(N2CCN(C(=O)c3ncnc(C)c3O)[C@@H]3CCC[C@@H]32)c(=O)c2nn(-c3ccnc(OC)c3)nc2n1CC(=O)NC12CC(C(C)C)(C1)C2 (relative stereo) [Compound I-77, rel-2-{6-[(4aR,7aS)-4-(5-hydroxy-6-methylpyrimidine-4-carbonyl)-octahydro-1H-cyclopenta[b]pyrazin-1-yl]-5-ethyl-2-(2-methoxypyridin-4-yl)-7-oxo-2H,4H,7H-[1,2,3]triazolo[4,5-b]pyridin-4-yl}-N-[3-(propan-2-yl)bicyclo[1.1.1]pentan-1-yl]acetamide] |
| 5.70 to 6.30 | 7.30 to 8.30 |  | CCc1c(N2CCN(C(=O)c3c(OC)ncc([C@H]4CCOC4)c3O)CC2)c(=O)c2nn(-c3ccnc(OC)c3)nc2n1CC(=O)NC12CC(C(C)C)(C1)C2 (single isomer, unassigned) [Compound I-43] |
| ≥ 6.30 | 7.30 to 8.30 |  | CCc1c(N2CCN(C(=O)c3c(OC)ncc([C@@H]4CCOC4)c3O)CC2)c(=O)c2nn(-c3ccnc(OC)c3)nc2n1CC(=O)NC12CC(C(C)C)(C1)C2 (single isomer, unassigned) [Compound I-44] |
| ≥ 6.30 | 7.30 to 8.30 |  | CCc1c(C2=CCN(C(=O)c3ncnc(C)c3O)C[C@H]2C)c(=O)c2nn(-c3ccnc(OC)c3)nc2n1CC(=O)NC12CC(C(C)C)(C1)C2 (single isomer, unassigned) [Compound I-80] |
| 5.70 to 6.30 | 7.30 to 8.30 |  | CCc1c(C2=CCN(C(=O)c3ncnc(C)c3O)C[C@@H]2C)c(=O)c2nn(-c3ccnc(OC)c3)nc2n1CC(=O)NC12CC(C(C)C)(C1)C2 (single isomer, unassigned) [Compound I-81] |
| 5.70 to 6.30 | 7.30 to 8.30 |  | CCc1c(N2CCN(C(=O)c3ncnc(C)c3O)C3CCC[C@H]32)c(=O)c2nn(-c3ccnc(OC)c3)nc2n1CC(=O)NC12CC(C(C)C)(C1)C2 (stereo in doubt) [Compound I-76, rel-2-{6-[(4aR,7aS)-4-(5-hydroxy-6-methylpyrimidine-4-carbonyl)-octahydro-1H-cyclopenta[b]pyrazin-1-yl]-5-ethyl-2-(2-methoxypyridin-4-yl)-7-oxo-2H,4H,7H-[1,2,3]triazolo[4,5-b]pyridin-4-yl}-N-[3-(propan-2-yl)bicyclo[1.1.1]pentan-1-yl]acetamide] |
